Laboratory results taken from ChEMBL document CHEMBL1201862, “PubChem BioAssay data set” (2004).
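Exposure lasted 48 hours, with cells grown in 96-well plates and compounds tested at five concentrations. Here, GI50 denotes the concentration required for 50% inhibition of growth.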 Activity calls are given as the source filed them. No stated cut-off is given here; in the data, active = GI50 up to about 1.1 µM and inactive = higher.

Legend:
Experiment in all cases: inhibition of tumour cell growth, NCI panel, 48 h
A498 = test system: A498
EKVX = test system: EKVX
HCT-15 = test system: HCT-15
HOP-62 = test system: HOP-62
Hs-578T = test system: Hs-578T
M14 = test system: M14
MDA-MB-231 = test system: MDA-MB-231
MDA-MB-435 = test system: MDA-MB-435
OVCAR-3 = test system: OVCAR-3
OVCAR-4 = test system: OVCAR-4
OVCAR-5 = test system: OVCAR-5
OVCAR-8 = test system: OVCAR-8
PC-3 = test system: PC-3
SF-268 = test system: SF-268
SF-539 = test system: SF-539
SN12C = test system: SN12C
SNB-75 = test system: SNB-75
SR = test system: SR
SW-620 = test system: SW-620
UACC-257 = test system: UACC-257

Row | SMILES | GI50 (A498) | GI50 (EKVX) | GI50 (HCT-15) | GI50 (HOP-62) | GI50 (Hs-578T) | GI50 (M14) | GI50 (MDA-MB-231) | GI50 (MDA-MB-435) | GI50 (OVCAR-3) | GI50 (OVCAR-4) | GI50 (OVCAR-5) | GI50 (OVCAR-8) | GI50 (PC-3) | GI50 (SF-268) | GI50 (SF-539) | GI50 (SN12C) | GI50 (SNB-75) | GI50 (SR) | GI50 (SW-620) | GI50 (UACC-257)
1 | Oc1ccc(CCc2cc(O)cc(O)c2)cc1 [DIHYDRORESVERATROL] | > 100 µM (inactive) | 50.5 µM (inactive) | 22.7 µM | > 100 µM (inactive) | > 100 µM (inactive) | > 100 µM (inactive) | 23.7 µM (inactive) | > 100 µM (inactive) | > 100 µM (inactive) | > 100 µM (inactive) | > 100 µM (inactive) | > 100 µM (inactive) | > 100 µM (inactive) | > 100 µM (inactive) | > 100 µM (inactive) | 72.3 µM (inactive) | > 100 µM (inactive) | > 100 µM (inactive) | > 100 µM (inactive) | > 100 µM (inactive)
2 | CCO/C=C1\SC(=S)N(c2ccc(OCC)cc2)C1=O | 80.4 µM (inactive) | > 100 µM (inactive) | 72.4 µM | > 100 µM (inactive) | 39.9 µM (inactive) | 97.5 µM (inactive) | > 100 µM (inactive) | 78.5 µM (inactive) | > 100 µM (inactive) | 57 µM (inactive) | > 100 µM (inactive) | > 100 µM (inactive) | 57.1 µM (inactive) | > 100 µM (inactive) | 44.9 µM (inactive) | > 100 µM (inactive) | 18.9 µM (inactive) | 30.2 µM (inactive) | > 100 µM (inactive) | 78.7 µM (inactive)
3 | CC(=O)N1N=C(N)CC1=O | > 100 µM (inactive) | > 100 µM (inactive) | > 100 µM | > 100 µM (inactive) | > 100 µM (inactive) | > 100 µM (inactive) | > 100 µM (inactive) | > 100 µM (inactive) | > 100 µM (inactive) | > 100 µM (inactive) | > 100 µM (inactive) | > 100 µM (inactive) | > 100 µM (inactive) | > 100 µM (inactive) | > 100 µM (inactive) | > 100 µM (inactive) | > 100 µM (inactive) | > 100 µM (inactive) | > 100 µM (inactive) | > 100 µM (inactive)
4 | BrCc1ccc(CBr)c2c1-c1c(CBr)ccc3ccc(CBr)c-2c13 | > 100 µM (inactive) | > 100 µM (inactive) | > 100 µM | > 100 µM (inactive) | 53.2 µM (inactive) | > 100 µM (inactive) | > 100 µM (inactive) | > 100 µM (inactive) | > 100 µM (inactive) | > 100 µM (inactive) | > 100 µM (inactive) | > 100 µM (inactive) | 36.6 µM (inactive) | > 100 µM (inactive) | 56.9 µM (inactive) | > 100 µM (inactive) | > 100 µM (inactive) | 46.2 µM (inactive) | > 100 µM (inactive) | > 100 µM (inactive)
5 | COc1c(CC=C(C)C)c(O)c(C(CC(C)C)c2c(O)c(CC=C(C)C)c(O)c(C(C)=O)c2O)c(O)c1C(C)=O (stereo not given) | 0.0843 µM (active) | 1.04 µM (active) | 0.4 µM | 1.4 µM (inactive) | 1.07 µM (active) | 1.43 µM (inactive) | 1.64 µM (inactive) | 1.94 µM (inactive) | 1.15 µM (inactive) | 1.44 µM (inactive) | 4.9 µM (inactive) | 0.385 µM (active) | 0.305 µM (active) | 0.323 µM (active) | 1.16 µM (inactive) | 0.469 µM (active) | 1.69 µM (inactive) | 1.1 µM (active) | 0.48 µM (active) | 1.45 µM (inactive)
